Assay results from publication PMC9403976, “Elucidating the path to Plasmodium prolyl-tRNA synthetase inhibitors that overcome halofuginone resistance” (Nature Communications, 2022).
Where “and” joins values, the source holds several entries; their conditions need not be identical. Identical values can stand only once. Like-named read-outs stand apart in the source and are kept apart here.

Experiments:
P. falciparum Dd2-2D4 = assay: P. falciparum asexual blood stage (ABS) growth assay, SYBR Green, 72 h, wild-type parasites; assay type: cell-based, Plasmodium falciparum; settings: for ABS growth dose-response, normalized signal (Replicates 1-3): Dd2-2D4
[1] = tested on: halofuginone-induced P. falciparum (elevated proline homeostasis); assay: P. falciparum ABS growth assay, SYBR Green, 72 h, halofuginone-induced parasites; assay type: cell-based, Plasmodium falciparum; settings: Halofuginone-Induced (HFG-Induced)
In short: (§1)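 Dd2-derived erythrocytic-stage parasites at 1% parasitemia and 1% hematocrit in RPMI + 0.5% Albumax were exposed to compounds in triplicate dose-response. Controls were 10 μM dihydroartemisinin (kill) and no-compound wells (growth). Growth was read by SYBR Green 1 fluorescence after 72 h and used to derive EC50.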

[2] = tested on: HFGR-I P. falciparum (elevated proline homeostasis and PfcProRS^L482H); assay: P. falciparum ABS growth assay, SYBR Green, 72 h, HFGR-I parasites; assay type: cell-based, Plasmodium falciparum; settings: HFGR-I
In short: as §1

PfcProRS = biological target: T1, PfcProRS (Plasmodium falciparum, UniProt Q8I5R7); assay type: binding; settings: for dose-response signal (normalized), SI Fig 8: single replicates
T1 construct: made in house; host or cells: E. coli SoluBL-21
T1 sequence (Q8I5R7 249-746): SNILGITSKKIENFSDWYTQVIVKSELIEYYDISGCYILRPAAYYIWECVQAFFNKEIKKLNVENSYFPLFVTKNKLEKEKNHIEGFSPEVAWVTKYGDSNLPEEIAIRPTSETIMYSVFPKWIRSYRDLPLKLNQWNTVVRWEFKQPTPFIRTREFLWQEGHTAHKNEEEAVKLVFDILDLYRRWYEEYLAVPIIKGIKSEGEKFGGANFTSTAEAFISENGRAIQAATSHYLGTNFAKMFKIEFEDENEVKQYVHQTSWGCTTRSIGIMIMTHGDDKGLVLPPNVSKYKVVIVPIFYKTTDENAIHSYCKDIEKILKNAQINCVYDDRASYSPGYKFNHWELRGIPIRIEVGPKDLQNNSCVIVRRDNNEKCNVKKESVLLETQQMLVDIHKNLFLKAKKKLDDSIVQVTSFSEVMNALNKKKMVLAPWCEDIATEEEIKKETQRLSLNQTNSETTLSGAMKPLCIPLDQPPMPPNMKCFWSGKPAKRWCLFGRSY

HsProRS = HsProRS (Homo sapiens, UniProt P07814); assay: TR-FRET ligand displacement assay with tracer MAT379 (CoraFluor-1-Halo and anti-His6 antibody formats); assay type: binding; parameters: made in house; host or cells: E. coli SoluBL-21; settings: for Kd: 250 nM MAT379; for TR-FRET dose-response, normalized signal (SI Fig 11): individual replicates
Sequence of HsProRS (P07814 996-1512): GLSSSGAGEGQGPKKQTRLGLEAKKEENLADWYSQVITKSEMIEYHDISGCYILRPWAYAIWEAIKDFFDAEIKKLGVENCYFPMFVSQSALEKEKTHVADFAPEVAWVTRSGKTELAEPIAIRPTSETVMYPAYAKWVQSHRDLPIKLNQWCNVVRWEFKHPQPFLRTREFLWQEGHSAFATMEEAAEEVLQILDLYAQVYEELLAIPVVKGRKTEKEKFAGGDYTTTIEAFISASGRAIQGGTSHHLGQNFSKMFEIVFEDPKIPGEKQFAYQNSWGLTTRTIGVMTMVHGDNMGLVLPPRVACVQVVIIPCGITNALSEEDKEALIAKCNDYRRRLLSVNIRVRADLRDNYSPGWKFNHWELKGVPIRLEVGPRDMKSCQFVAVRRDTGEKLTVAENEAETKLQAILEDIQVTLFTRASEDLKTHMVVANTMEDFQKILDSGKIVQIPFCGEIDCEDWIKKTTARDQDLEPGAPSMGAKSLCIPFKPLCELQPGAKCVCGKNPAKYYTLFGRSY

CC(C)(C)OC(=O)N[C@H]1CC[C@@H](C(=O)Nc2nccnc2C(=O)NC2Cc3ccccc3C2)CC1 [compound 6]
ABS growth dose-response, normalized signal (Replicates 1-3) (P. falciparum Dd2-2D4; Log[inhibitor] (M) -4.699): 0 | ABS growth dose-response, normalized signal (Replicates 1-3) (P. falciparum Dd2-2D4; Log[inhibitor] (M) -5.301): 1 | ABS growth dose-response, normalized signal (Replicates 1-3) (P. falciparum Dd2-2D4; Log[inhibitor] (M) -5.903): 4 | EC50 (P. falciparum Dd2-2D4; Plasmodium falciparum, DD2, SI Fig 16b, values on -log scale, read-out: ABS - Dd2-2D4 (converted)): 508 nM | ABS growth dose-response, normalized signal (Replicates 1-3) ([1]; Log[inhibitor] (M) -5.000): 38 and 37 and 33 | ABS growth dose-response, normalized signal (Replicates 1-3) ([1]; Log[inhibitor] (M) -5.301): 80 and 73 and 79 | ABS growth dose-response, normalized signal (Replicates 1-3) ([1]; Log[inhibitor] (M) -5.602): 89 and 91 and 90 | ABS growth dose-response, normalized signal (Replicates 1-3) ([1]; Log[inhibitor] (M) -5.903): 99 and 97 and 98 | ABS growth dose-response, normalized signal (Replicates 1-3) ([1]; Log[inhibitor] (M) -6.204): 99 and 98 and 96 | ABS growth dose-response, normalized signal (Replicates 1-3) ([1]; Log[inhibitor] (M) -6.505): 98 and 107 and 101 | ABS growth dose-response, normalized signal (Replicates 1-3) ([1]; Log[inhibitor] (M) -6.806): 93 and 91 and 99 | ABS growth dose-response, normalized signal (Replicates 1-3) ([1]; Log[inhibitor] (M) -7.107): 91 and 93 and 96 | ABS growth dose-response, normalized signal (Replicates 1-3) ([1]; Log[inhibitor] (M) -7.408): 96 and 93 and 99 | ABS growth dose-response, normalized signal (Replicates 1-3) ([1]; Log[inhibitor] (M) -7.709): 100 and 98 (2×) | ABS growth dose-response, normalized signal (Replicates 1-3) ([1]; Log[inhibitor] (M) -8.010): 99 (2×) and 97 | ABS growth dose-response, normalized signal (Replicates 1-3) ([1]; Log[inhibitor] (M) -8.311): 98 and 97 and 96 | ABS growth dose-response, normalized signal (Replicates 1-3) ([2]; Log[inhibitor] (M) -5.000): 30 and 31 and 35 | ABS growth dose-response, normalized signal (Replicates 1-3) ([2]; Log[inhibitor] (M) -5.301): 64 and 68 and 70 | ABS growth dose-response, normalized signal (Replicates 1-3) ([2]; Log[inhibitor] (M) -5.602): 83 (2×) and 82 | ABS growth dose-response, normalized signal (Replicates 1-3) ([2]; Log[inhibitor] (M) -5.903): 92 and 97 and 94 | ABS growth dose-response, normalized signal (Replicates 1-3) ([2]; Log[inhibitor] (M) -6.204): 105 and 106 and 108 | ABS growth dose-response, normalized signal (Replicates 1-3) ([2]; Log[inhibitor] (M) -6.505): 108 (2×) and 110 | ABS growth dose-response, normalized signal (Replicates 1-3) ([2]; Log[inhibitor] (M) -6.806): 85 and 90 (2×) | ABS growth dose-response, normalized signal (Replicates 1-3) ([2]; Log[inhibitor] (M) -7.107): 91 and 92 and 97 | ABS growth dose-response, normalized signal (Replicates 1-3) ([2]; Log[inhibitor] (M) -7.408): 92 and 97 and 99 | ABS growth dose-response, normalized signal (Replicates 1-3) ([2]; Log[inhibitor] (M) -7.709): 95 and 99 (2×) | ABS growth dose-response, normalized signal (Replicates 1-3) ([2]; Log[inhibitor] (M) -8.010): 107 and 102 and 97 | ABS growth dose-response, normalized signal (Replicates 1-3) ([2]; Log[inhibitor] (M) -8.311): 104 and 108 and 101 | dose-response signal (normalized), SI Fig 8 (PfcProRS; Log[inhibitor] (M) -5.000): -1.61E-02 and -5.30E-02 and -3.81E-03 | dose-response signal (normalized), SI Fig 8 (PfcProRS; Log[inhibitor] (M) -5.301): -7.80E-02 and -1.87E-02 and -8.78E-02 | dose-response signal (normalized), SI Fig 8 (PfcProRS; Log[inhibitor] (M) -5.601): 1.78E-02 and -1.26E-02 and 5.92E-03 | dose-response signal (normalized), SI Fig 8 (PfcProRS; Log[inhibitor] (M) -5.904): 6.25E-02 and 5.05E-02 and 9.24E-02 | dose-response signal (normalized), SI Fig 8 (PfcProRS; Log[inhibitor] (M) -6.208): 5.23E-02 and 1.76E-01 and 1.80E-01 | dose-response signal (normalized), SI Fig 8 (PfcProRS; Log[inhibitor] (M) -6.509): 2.25E-01 and 2.68E-01 and 2.02E-01 | dose-response signal (normalized), SI Fig 8 (PfcProRS; Log[inhibitor] (M) -6.796): 4.96E-01 and 4.42E-01 and 4.81E-01 | dose-response signal (normalized), SI Fig 8 (PfcProRS; Log[inhibitor] (M) -7.108): 6.45E-01 and 6.22E-01 and 4.90E-01 | dose-response signal (normalized), SI Fig 8 (PfcProRS; Log[inhibitor] (M) -7.409): 7.15E-01 and 8.22E-01 and 8.32E-01 | dose-response signal (normalized), SI Fig 8 (PfcProRS; Log[inhibitor] (M) -7.710): 9.70E-01 and 9.04E-01 and 8.55E-01 | dose-response signal (normalized), SI Fig 8 (PfcProRS; Log[inhibitor] (M) -8.000): 8.78E-01 and 9.57E-01 and 8.94E-01 | dose-response signal (normalized), SI Fig 8 (PfcProRS; Log[inhibitor] (M) -8.301): 1.00E+00 and 9.97E-01 and 9.67E-01 | dose-response signal (normalized), SI Fig 8 (PfcProRS; Log[inhibitor] (M) -8.602): 1.06E+00 and 9.31E-01 and 1.01E+00 | dose-response signal (normalized), SI Fig 8 (PfcProRS; Log[inhibitor] (M) -9.000): 9.58E-01 and 9.81E-01 and 9.50E-01 | dose-response signal (normalized), SI Fig 8 (PfcProRS; Log[inhibitor] (M) -9.301): 1.01E+00 and 1.02E+00 and 9.51E-01 | PfcProRS -- best Kd (PfcProRS; SI Fig 16a, values on -log scale): 7.580 | Kd (HsProRS; HsProRS (KD [nM]) + proline, 100 μM proline): 82.7 nM | Kd (HsProRS; HsProRS (KD [nM]) −, absence of substrates): 56.8 nM | normalized TR-FRET ligand displacement signal, dose-response replicates (SI Fig 6) (HsProRS; Log[inhibitor] (M) -5.000): -9.02E-03 and -3.85E-02 and -4.81E-02 | TR-FRET dose-response, normalized signal (SI Fig 11) (HsProRS; Log[inhibitor] (M) -5.000): -2.98E-03 and 2.00E-02 and -3.48E-02 | normalized TR-FRET ligand displacement signal, dose-response replicates (SI Fig 6) (HsProRS; Log[inhibitor] (M) -5.301): 1.39E-03 and -1.19E-02 and 6.50E-02 | TR-FRET dose-response, normalized signal (SI Fig 11) (HsProRS; Log[inhibitor] (M) -5.301): -9.84E-03 and -1.64E-02 and -3.17E-02 | normalized TR-FRET ligand displacement signal, dose-response replicates (SI Fig 6) (HsProRS; Log[inhibitor] (M) -5.601): 3.06E-03 and 6.60E-02 and -6.88E-02 | TR-FRET dose-response, normalized signal (SI Fig 11) (HsProRS; Log[inhibitor] (M) -5.601): 1.87E-02 and 1.41E-03 and 1.94E-02 | normalized TR-FRET ligand displacement signal, dose-response replicates (SI Fig 6) (HsProRS; Log[inhibitor] (M) -5.904): 1.31E-01 and 8.92E-02 and 1.65E-02 | TR-FRET dose-response, normalized signal (SI Fig 11) (HsProRS; Log[inhibitor] (M) -5.904): 4.76E-02 and 6.37E-02 and 6.71E-02 | normalized TR-FRET ligand displacement signal, dose-response replicates (SI Fig 6) (HsProRS; Log[inhibitor] (M) -6.208): 8.21E-02 and 1.14E-01 and 9.74E-02 | TR-FRET dose-response, normalized signal (SI Fig 11) (HsProRS; Log[inhibitor] (M) -6.208): 1.11E-01 and 9.52E-02 and 8.68E-02 | normalized TR-FRET ligand displacement signal, dose-response replicates (SI Fig 6) (HsProRS; Log[inhibitor] (M) -6.509): 3.32E-01 and 2.13E-01 and 2.09E-01 | TR-FRET dose-response, normalized signal (SI Fig 11) (HsProRS; Log[inhibitor] (M) -6.509): 1.70E-01 and 1.88E-01 and 1.94E-01 | normalized TR-FRET ligand displacement signal, dose-response replicates (SI Fig 6) (HsProRS; Log[inhibitor] (M) -6.796): 3.90E-01 and 3.58E-01 and 4.40E-01 | TR-FRET dose-response, normalized signal (SI Fig 11) (HsProRS; Log[inhibitor] (M) -6.796): 3.16E-01 and 2.94E-01 and 3.43E-01 | normalized TR-FRET ligand displacement signal, dose-response replicates (SI Fig 6) (HsProRS; Log[inhibitor] (M) -7.108): 6.29E-01 and 5.81E-01 and 6.23E-01 | TR-FRET dose-response, normalized signal (SI Fig 11) (HsProRS; Log[inhibitor] (M) -7.108): 5.24E-01 and 5.07E-01 and 4.16E-01 | normalized TR-FRET ligand displacement signal, dose-response replicates (SI Fig 6) (HsProRS; Log[inhibitor] (M) -7.409): 7.27E-01 and 7.69E-01 and 8.30E-01 | TR-FRET dose-response, normalized signal (SI Fig 11) (HsProRS; Log[inhibitor] (M) -7.409): 6.04E-01 and 6.96E-01 and 6.63E-01 | normalized TR-FRET ligand displacement signal, dose-response replicates (SI Fig 6) (HsProRS; Log[inhibitor] (M) -7.710): 8.52E-01 and 7.93E-01 and 9.04E-01 | TR-FRET dose-response, normalized signal (SI Fig 11) (HsProRS; Log[inhibitor] (M) -7.710): 7.36E-01 and 7.44E-01 and 7.53E-01 | normalized TR-FRET ligand displacement signal, dose-response replicates (SI Fig 6) (HsProRS; Log[inhibitor] (M) -8.000): 8.26E-01 and 9.38E-01 and 9.73E-01 | TR-FRET dose-response, normalized signal (SI Fig 11) (HsProRS; Log[inhibitor] (M) -8.000): 8.98E-01 and 8.12E-01 and 7.76E-01 | normalized TR-FRET ligand displacement signal, dose-response replicates (SI Fig 6) (HsProRS; Log[inhibitor] (M) -8.301): 9.79E-01 and 9.47E-01 and 1.01E+00 | TR-FRET dose-response, normalized signal (SI Fig 11) (HsProRS; Log[inhibitor] (M) -8.301): 8.89E-01 and 8.40E-01 and 9.15E-01 | normalized TR-FRET ligand displacement signal, dose-response replicates (SI Fig 6) (HsProRS; Log[inhibitor] (M) -8.602): 9.42E-01 and 9.96E-01 and 9.03E-01 | TR-FRET dose-response, normalized signal (SI Fig 11) (HsProRS; Log[inhibitor] (M) -8.602): 9.56E-01 and 8.65E-01 and 9.25E-01 | normalized TR-FRET ligand displacement signal, dose-response replicates (SI Fig 6) (HsProRS; Log[inhibitor] (M) -9.000): 9.97E-01 and 9.50E-01 and 8.98E-01 | TR-FRET dose-response, normalized signal (SI Fig 11) (HsProRS; Log[inhibitor] (M) -9.000): 9.29E-01 and 9.09E-01 and 9.22E-01 | normalized TR-FRET ligand displacement signal, dose-response replicates (SI Fig 6) (HsProRS; Log[inhibitor] (M) -9.301): 1.05E+00 and 9.90E-01 and 1.06E+00 | TR-FRET dose-response, normalized signal (SI Fig 11) (HsProRS; Log[inhibitor] (M) -9.301): 9.30E-01 and 9.49E-01 and 9.75E-01
